Results published in patent publication US10857201B2, “NNIF and nNIF-related peptides and related methods” (UNIVERSITY OF UTAH RESEARCH FOUNDATION, priority 2016, dated 2020).

Assays:
[1] = system: activated human platelets and PMNs; experiment: Platelet-neutrophil aggregate formation; type: cell-based; conditions: thrombin 0.1 U/mL, LPS 100 ng/mL; peptide 1 nM
Description: FIG. 6F is a graph depicting formation of platelet-neutrophil aggregates that was measured after mixing of platelets activated with thrombin (0.1 U/mL) and neutrophils activated with LPS (100 ng/mL). The dashed line indicates control aggregate formation in response to LPS stimulation of the PMNs alone. *P<0.05 for CRISPP and CRISPP-SCR compared to control. FIGS. 6A-6F are a series of graphs depicting isolated adult neutrophils or platelets that were preincubated with buffer or with CRISPP, nNIF, or CRISPP-SCR (1 nM, 1 hour for each) followed by measurement of functional responses. A minimum of three separate assays were done for each response. Error bars=SEM. Tukey's post hoc testing was applied in FIGS. 6B, 6D, 6E, and 6F.
(§1) P-selectin translocation and surface display by activated platelets (see van Velzen J F, et al., Thromb Res. 2012; 130 (1):92-8) and formation of platelet-neutrophil aggregates (see Evangelista V, et al., Blood. 1996; 88 (11):4183-94) were measured as described.

platelets = experiment: P-selectin surface translocation on thrombin-activated platelets (flow cytometry); type: cell-based, human; conditions: thrombin 0.1 U/mL; peptide 1 nM
Description: FIG. 6E is a graph depicting surface translocation of P-selectin on platelets activated by thrombin (0.1 U/mL) that was measured by flow cytometry. The dashed line indicates surface P-selectin on unstimulated platelets.
as §1

[2] = system: PMN killing of a pathogenic strain of Escherichia coli; experiment: Bacterial killing assay (total, phagocytic, NET-mediated); type: cell-based, human; conditions: LPS-stimulated PMNs, E. coli
Description: FIG. 6A is a graph depicting results, after preincubation, of neutrophils that were stimulated with LPS (100 ng/mL) to trigger NET formation and incubated with a pathogenic isolate of E. coli. Total, phagocytic, and NET-mediated bacterial killing were measured (see Yost C C, et al., Blood. 2009; 113 (25):6419-27). One way ANOVA with Bonferonni's post hoc testing; *P<0.05, **P<0.01.
NET-mediated and phagocytic bacterial killing by primary human PMNs was determined as previously described (see Yost C C, et al., Blood. 2009; 113 (25):6419-27).
Without being bound by any specific theory, it was hypothesized that placentally expressed HTRA1, a serine protease, regulates the formation of NET-inhibitory peptides through cleavage of AAT. To test this hypothesis, term and preterm placenta were assessed for HTRA1 expression via western blotting. HTRA1 and AAT plasma expression from term and preterm infants and adults were determined by ELISA. Bioactive (0.5 μg) or placental eluted HTRA1 was incubated with AAT (8 μM) for 18 hours at 37° C. Carboxy-terminus fragments of AAT were detected using western blotting and mass spectrometry. The reaction products were incubated for 1 hour with PMNs isolated from healthy adults prior to LPS stimulation (100 ng/mL) and assessed for NET formation using live cell imaging. Reactive oxygen species were assessed using flow cytometry, chemotaxis using a modified Boyden chamber assay, and bacterial killing using E. coli.

M_IPPEVKFNKPFVFLMIDQNTKVPLFMGK [CRISPP, consensus peptide based on factors present in the blood of patients with cancer]
formation of heterotypic aggregates by activated platelets and PMNs [1]: does not inhibit | surface translocation of P-selectin by thrombin-stimulated platelets (platelets): does not inhibit | extracellular NET-mediated bacterial killing [2]: depressed | phagocytic intracellular killing [2]: not altered | total bacterial killing [2]: depressed
